# Source: patent US20250108023A1, “Products for Masking Bitterness” (The Third People's Hospital of Henan Province, priority 2023, published 2025)
# Assays:
# TRPM5 = molecular target: T1, TRPM5 (Mus musculus, UniProt Q9JJH7); details: TPPO 5 μM; cited from earlier work
# T1 construct: host or cells: mouse taste cells
# T1 sequence (Q9JJH7 1-1158): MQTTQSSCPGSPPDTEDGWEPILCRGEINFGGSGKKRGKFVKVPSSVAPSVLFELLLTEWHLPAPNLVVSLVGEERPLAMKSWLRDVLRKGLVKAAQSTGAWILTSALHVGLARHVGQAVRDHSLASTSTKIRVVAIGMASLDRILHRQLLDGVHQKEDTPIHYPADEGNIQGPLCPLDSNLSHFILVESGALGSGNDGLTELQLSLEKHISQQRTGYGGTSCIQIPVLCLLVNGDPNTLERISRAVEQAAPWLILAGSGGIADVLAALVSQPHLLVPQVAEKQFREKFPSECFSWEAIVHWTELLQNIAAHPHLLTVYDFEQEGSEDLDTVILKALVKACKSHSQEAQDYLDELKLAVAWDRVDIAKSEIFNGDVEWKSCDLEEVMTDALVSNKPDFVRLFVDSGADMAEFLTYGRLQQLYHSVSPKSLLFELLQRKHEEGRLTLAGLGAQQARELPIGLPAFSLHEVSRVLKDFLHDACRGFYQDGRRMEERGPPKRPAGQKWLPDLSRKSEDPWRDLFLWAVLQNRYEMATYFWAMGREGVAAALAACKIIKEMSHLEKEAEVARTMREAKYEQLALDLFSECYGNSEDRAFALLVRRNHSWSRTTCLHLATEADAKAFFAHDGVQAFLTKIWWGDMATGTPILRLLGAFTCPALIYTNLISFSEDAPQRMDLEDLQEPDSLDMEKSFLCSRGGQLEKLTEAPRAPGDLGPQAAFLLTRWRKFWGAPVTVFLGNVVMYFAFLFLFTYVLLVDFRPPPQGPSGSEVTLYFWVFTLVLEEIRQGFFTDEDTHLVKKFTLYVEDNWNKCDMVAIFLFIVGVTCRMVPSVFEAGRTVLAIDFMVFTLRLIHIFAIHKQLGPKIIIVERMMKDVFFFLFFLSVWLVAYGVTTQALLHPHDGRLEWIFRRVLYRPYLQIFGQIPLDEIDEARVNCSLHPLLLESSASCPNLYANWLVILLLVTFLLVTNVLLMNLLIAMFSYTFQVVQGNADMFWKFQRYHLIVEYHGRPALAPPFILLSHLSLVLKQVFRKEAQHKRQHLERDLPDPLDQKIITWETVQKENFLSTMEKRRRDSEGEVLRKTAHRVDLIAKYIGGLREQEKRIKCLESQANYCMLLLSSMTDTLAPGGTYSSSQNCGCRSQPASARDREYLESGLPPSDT
# [1] = molecular target: T2, sodium ion channel of Trpm5 bitter receptor (Mus musculus, UniProt Q9JJH7); experiment: Immunofluorescence experiment of sodium ion channels in mouse tongue cells stimulated with bitter agent; type: cell-based, mice
# T2 construct: Put the removed tongue in a 2 ml EP tube, add 1-1.5 ml of 0.25% trypsin solution; from tissue; host or cells: cells dissociated with trypsin from mouse tongue
# T2 sequence (Q9JJH7 1-1158): T1 sequence (Q9JJH7 1-1158)
# Procedure: The mouse was killed by dislocation, and the tongue was removed (minimizing tongue bleeding), disinfected with alcohol for 2 minutes (adding sodium citrate for anticoagulation), and washed with D-Hanks solution or rinsed with 10 ml of saline solution drawn by a syringe.
# Take out the centrifuge tube from the constant temperature incubator, shake for 2 minutes, blow the undigested tongue several times with the gun tip, take out the tongue, cover it with the EP tube cap, put it in a centrifuge, centrifuge at 3000 rpm for 3 minutes, discard the supernatant, add cell culture medium (containing 10% inactivated serum), blow and disperse the cells, and place it in a 37° C. constant temperature incubator for 30 min to allow the cells to recover.
# (1) Take out the prepared ENG-2 AM storage solution and warm it to room temperature for use, keeping it away from light. The concentration of the pre-prepared stock solution is 2 mM and it is stored at −18° C. for future use.
# (2) Dilute the ENG-2 AM+DMSO stock solution to a […] working solution using serum-free culture medium.
# (3) Load the probe in a serum-free culture medium containing an appropriate concentration of AM probe.
# Take out the cells from the incubator, centrifuge, and discard the culture medium. Wash the cells once with D-Hanks solution, centrifuge, and discard the culture medium. Add 1 ml of culture medium again, then add 300 ul of sodium ion probe dilution solution, blow and disperse the cells, and incubate the cells at room temperature or 37° C. for 1 hour.
# At the end of incubation, centrifuge at 100 rpm for 2 minutes, discard the supernatant, add 500 ul of cell culture medium without AM probe, blow and disperse the cells, and incubate for 20-60 min to ensure that the cells completely deesterify the AM group.
# (4) Take 10 ul of incubation solution and drop it into the center of the cell counting plate, cover it with a slide, and observe it under a fluorescence microscope.
# (5) Use a low-power microscope to find the cells, open the fluorescence path, detect the fluorescence signal with a fluorescence microscope, change to a high-power microscope, find the appropriate observation cells, observe and take pictures to record the initial signal.
# (2) Experimental drugs: Add 5 ul of the tested drug to one side of the cover glass on the cell counting plate, use absorbent paper to absorb water on the opposite side, let the solution soak the cells, and then use a fluorescence microscope to observe and take 3-5 photos, one every 1-2 minutes; then add 5 ul of the standard bitter drug to one side of the cover glass on the cell counting plate, use absorbent paper to absorb water on the opposite side, let the solution soak the cells, and then use a fluorescence microscope to observe and take 3-5 photos, one every 1-2 minutes.
# (5) Data analysis: Use Image J-Fiji software to analyze the images, compare the average values of the fluorescence pixels, remove the base number and compare them in the table, draw FIGS. 4-6, and use SPSS18.0 to perform chi-square tests to compare the differences between the data groups.
# [2] = Bitterant 60 s (2% metronidazole solution)
# [3] = Bitterant 120 s (2% metronidazole solution)
# [4] = Bitterant 180 s (2% metronidazole solution)
smiles,measurement,setting,value
"O=P(c1ccccc1)(c1ccccc1)c1ccccc1 [Triphenylphosphine oxide, reference compound]",remaining taste-evoked Na^+ responses,TRPM5,abolished
same,average value of fluorescence brightness,[1]; Addition of drugs,88.789
same,"average value of fluorescence brightness, base number removed",[1]; Addition of drugs,−0.243
same,average value of fluorescence brightness,[1]; [2],88.608
same,"average value of fluorescence brightness, base number removed",[1]; [2],−0.308
same,average value of fluorescence brightness,[1]; [3],88.598
same,"average value of fluorescence brightness, base number removed",[1]; [3],−1.322
same,average value of fluorescence brightness,[1]; [4],88.583
same,"average value of fluorescence brightness, base number removed",[1]; [4],−1.384
same,"average value of fluorescence brightness, base number removed",[1]; Initial,0
same,average value of fluorescence brightness,"[1]; Initial (before addition of drug), sodium ion dye ENG-2 AM",88.898
same,blocking effect on the sodium ion channel (result analysis in words),[1]; judged from change of sodium ion fluorescence after bitter drug,sodium ion channel is blocked
